Reference: ChEMBL document CHEMBL3611985, “Synthesis and structure-activity relationships of novel 9-oxime acylides with improved bactericidal activity” (2015)
Values after ≈ are worked out from the molar mass of the structure shown.

How the values were obtained:
Format in all cases: functional
Streptococcus pneumoniae [1] = experiment: Antimicrobial activity against erythromycin-susceptible Streptococcus pneumoniae ATCC 49619 incubated for 20 to 24 hrs by two-fold microbroth dilution method
Streptococcus pneumoniae [2] = experiment: Antimicrobial activity against Streptococcus pneumoniae 07P390 expressing constitutive ermB incubated for 20 to 24 hrs by two-fold microbroth dilution method
Streptococcus pneumoniae [3] = experiment: Antimicrobial activity against penicillin-susceptible Streptococcus pneumoniae PU09 incubated for 20 to 24 hrs by two-fold microbroth dilution method
Streptococcus pyogenes [4] = experiment: Antimicrobial activity against Streptococcus pyogenes 01-968 expressing inducible ermA incubated for 20 to 24 hrs by two-fold microbroth dilution method
Staphylococcus aureus [5] = experiment: Antimicrobial activity against methicillin-resistant Staphylococcus aureus PU32 expressing inducible ermA incubated for 20 hrs by two-fold microbroth dilution method; conditions: PU32, 20 h
Staphylococcus aureus [6] = experiment: Antimicrobial activity against methicillin-resistant Staphylococcus aureus PU20 expressing constitutive ermC incubated for 20 hrs by two-fold microbroth dilution method; conditions: PU20, 20 h
Haemophilus influenzae [7] = experiment: Antimicrobial activity against azithromycin-susceptible and ampicillin-resistant Haemophilus influenzae 11P037 incubated for 20 to 24 hrs by two-fold microbroth dilution method
Streptococcus pyogenes [8] = experiment: Antimicrobial activity against Streptococcus pyogenes 12-207 expressing mef incubated for 20 to 24 hrs by two-fold microbroth dilution method
Moraxella catarrhalis [9] = experiment: Antimicrobial activity against erythromycin-susceptible Moraxella catarrhalis 11B366 incubated for 20 hrs by two-fold microbroth dilution method; conditions: 11B366, 20 h
Streptococcus pyogenes [10] = experiment: Bactericidal activity against Streptococcus pyogenes 01-968 expressing inducible ermA incubated for 20 to 24 hrs followed by sub-culturing for 24 hrs in absence of compound
Streptococcus pyogenes [11] = experiment: Bactericidal activity against Streptococcus pyogenes 12-207 expressing mef incubated for 20 to 24 hrs followed by sub-culturing for 24 hrs in absence of compound
Haemophilus influenzae [12] = experiment: Bactericidal activity against azithromycin-susceptible and ampicillin-resistant Haemophilus influenzae 11P037 incubated for 20 to 24 hrs followed by sub-culturing for 24 hrs in absence of compound
Staphylococcus aureus [13] = experiment: Bactericidal activity against methicillin-resistant Staphylococcus aureus PU32 expressing inducible ermA incubated for 20 hrs followed by sub-culturing for 24 hrs in absence of compound
Moraxella catarrhalis [14] = experiment: Bactericidal activity against erythromycin-susceptible Moraxella catarrhalis 11B366 incubated for 20 hrs followed by sub-culturing for 24 hrs in absence of compound
Streptococcus pyogenes [15] = experiment: Ratio of MBC to MIC against Streptococcus pyogenes 01-968 expressing inducible ermA
Streptococcus pyogenes [16] = experiment: Ratio of MBC to MIC against Streptococcus pyogenes 12-207 expressing mef
Haemophilus influenzae [17] = experiment: Ratio of MBC to MIC against azithromycin-susceptible and ampicillin-resistant Haemophilus influenzae 11P037
Staphylococcus aureus [18] = experiment: Ratio of MBC to MIC against methicillin-resistant Staphylococcus aureus PU32 expressing inducible ermA
Moraxella catarrhalis [19] = experiment: Ratio of MBC to MIC against erythromycin-susceptible Moraxella catarrhalis 11B366

## CC[C@H]1OC(=O)[C@H](C)[C@@H](OC(=O)Cc2ccccn2)[C@H](C)[C@@H](O[C@@H]2O[C@H](C)C[C@H](N(C)C)[C@H]2O)[C@](C)(OC)C[C@@H](C)/C(=N\OCC#Cc2cccc(NC(=O)Cc3ccccn3)n2)[C@H](C)[C@H]2OC(=O)O[C@@]21C
Streptococcus pneumoniae [1]
  MIC: 0.125 µg/mL (≈ 0.125 µM)
Streptococcus pneumoniae [2]
  MIC: 1 µg/mL (≈ 1 µM)
Streptococcus pneumoniae [3]
  MIC: 2 µg/mL (≈ 2 µM)
Streptococcus pyogenes [4]
  MIC: 4 µg/mL (≈ 4 µM)
Staphylococcus aureus [5]
  MIC: 2 µg/mL (≈ 2 µM)
Staphylococcus aureus [6]
  MIC: > 64 µg/mL
Haemophilus influenzae [7]
  MIC: > 64 µg/mL

## CC[C@H]1OC(=O)[C@H](C)[C@@H](OC(=O)Cc2ccccn2)[C@H](C)[C@@H](O[C@@H]2O[C@H](C)C[C@H](N(C)C)[C@H]2O)[C@](C)(OC)C[C@@H](C)/C(=N\OC/C=C/c2ccc(NC(=O)Cc3ccccn3)nc2)[C@H](C)[C@H]2OC(=O)O[C@@]21C
Streptococcus pneumoniae [1]
  MIC: 0.125 µg/mL (≈ 0.125 µM)
Streptococcus pneumoniae [2]
  MIC: 2 µg/mL (≈ 2 µM)
Streptococcus pneumoniae [3]
  MIC: 2 µg/mL (≈ 2 µM)
Streptococcus pyogenes [4]
  MIC: 8 µg/mL (≈ 7.99 µM)
Staphylococcus aureus [5]
  MIC: 4 µg/mL (≈ 4 µM)
Staphylococcus aureus [6]
  MIC: > 64 µg/mL
Haemophilus influenzae [7]
  MIC: > 64 µg/mL

## CC[C@H]1OC(=O)[C@H](C)[C@@H](OC(=O)Cc2ccccn2)[C@H](C)[C@@H](O[C@@H]2O[C@H](C)C[C@H](N(C)C)[C@H]2O)[C@](C)(OC)C[C@@H](C)/C(=N\OCC#Cc2cncc(NC(=O)Cc3ccccn3)c2)[C@H](C)[C@H]2OC(=O)O[C@@]21C
Streptococcus pneumoniae [1]
  MIC: 0.031 µg/mL (≈ 0.031 µM)
Streptococcus pneumoniae [2]
  MIC: 1 µg/mL (≈ 1 µM)
Streptococcus pneumoniae [3]
  MIC: 2 µg/mL (≈ 2 µM)
Streptococcus pyogenes [4]
  MIC: 4 µg/mL (≈ 4 µM)
Staphylococcus aureus [5]
  MIC: 2 µg/mL (≈ 2 µM)
Staphylococcus aureus [6]
  MIC: > 64 µg/mL
Haemophilus influenzae [7]
  MIC: > 64 µg/mL

## CC[C@H]1OC(=O)[C@H](C)[C@@H](OC(=O)Cc2ccccn2)[C@H](C)[C@@H](O[C@@H]2O[C@H](C)C[C@H](N(C)C)[C@H]2O)[C@](C)(OC)C[C@@H](C)/C(=N\OC/C=C/c2cccnc2N)[C@H](C)[C@H]2OC(=O)O[C@@]21C
Streptococcus pneumoniae [1]
  MIC: 0.062 µg/mL (≈ 0.0703 µM)
Streptococcus pneumoniae [2]
  MIC: 4 µg/mL (≈ 4.53 µM)
Streptococcus pneumoniae [3]
  MIC: 1 µg/mL (≈ 1.13 µM)
Streptococcus pyogenes [4]
  MIC: 2 µg/mL (≈ 2.27 µM)
Staphylococcus aureus [5]
  MIC: 1 µg/mL (≈ 1.13 µM)
Staphylococcus aureus [6]
  MIC: > 64 µg/mL
Haemophilus influenzae [7]
  MIC: 32 µg/mL (≈ 36.3 µM)

## CC[C@H]1OC(=O)[C@H](C)[C@@H](O[C@H]2C[C@@](C)(OC)[C@@H](O)[C@H](C)O2)[C@H](C)[C@@H](O[C@@H]2O[C@H](C)C[C@H](N(C)C)[C@H]2O)[C@](C)(OC)C[C@@H](C)C(=O)[C@H](C)[C@@H](O)[C@]1(C)O [CLARITHROMYCIN]
Streptococcus pneumoniae [1]
  MIC: 0.062 µg/mL (≈ 0.0829 µM)
Streptococcus pneumoniae [2]
  MIC: > 64 µg/mL
Streptococcus pneumoniae [3]
  MIC: 2 µg/mL (≈ 2.67 µM)
Streptococcus pyogenes [4]
  MIC: 4 µg/mL (≈ 5.35 µM)
Staphylococcus aureus [5]
  MIC: 32 µg/mL (≈ 42.8 µM)
Staphylococcus aureus [6]
  MIC: > 64 µg/mL
Haemophilus influenzae [7]
  MIC: 4 µg/mL (≈ 5.35 µM)
Streptococcus pyogenes [8]
  MIC: 16 µg/mL (≈ 21.4 µM)
Moraxella catarrhalis [9]
  MIC: 0.125 µg/mL (≈ 0.167 µM)
Streptococcus pyogenes [10]
  MBC: > 8 µg/mL
Streptococcus pyogenes [11]
  MBC: 32 µg/mL (≈ 42.8 µM)
Haemophilus influenzae [12]
  MBC: 8 µg/mL (≈ 10.7 µM)
Staphylococcus aureus [13]
  MBC: > 16 µg/mL
Moraxella catarrhalis [14]
  MBC: 0.25 µg/mL (≈ 0.334 µM)
Streptococcus pyogenes [15]
  Ratio: >8
Streptococcus pyogenes [16]
  Ratio: 2
Haemophilus influenzae [17]
  Ratio: 8
Staphylococcus aureus [18]
  Ratio: >2
Moraxella catarrhalis [19]
  Ratio: 2

## CC[C@H]1OC(=O)[C@H](C)C(=O)[C@H](C)[C@@H](O[C@@H]2O[C@H](C)C[C@H](N(C)C)[C@H]2O)[C@](C)(OC)C[C@@H](C)C(=O)[C@H](C)[C@H]2N(CCCCn3cnc(-c4cccnc4)c3)C(=O)O[C@]12C [TELITHROMYCIN]
Streptococcus pneumoniae [1]
  MIC: 0.031 µg/mL (≈ 0.0382 µM)
Streptococcus pneumoniae [2]
  MIC: 0.062 µg/mL (≈ 0.0764 µM)
Streptococcus pneumoniae [3]
  MIC: 0.25 µg/mL (≈ 0.308 µM)
Streptococcus pyogenes [4]
  MIC: 2 µg/mL (≈ 2.46 µM)
Staphylococcus aureus [5]
  MIC: 0.25 µg/mL (≈ 0.308 µM)
Staphylococcus aureus [6]
  MIC: > 64 µg/mL
Haemophilus influenzae [7]
  MIC: 2 µg/mL (≈ 2.46 µM)
Streptococcus pyogenes [8]
  MIC: 0.5 µg/mL (≈ 0.616 µM)
Moraxella catarrhalis [9]
  MIC: 0.25 µg/mL (≈ 0.308 µM)
Streptococcus pyogenes [10]
  MBC: 0.125 µg/mL (≈ 0.154 µM)
Streptococcus pyogenes [11]
  MBC: 1 µg/mL (≈ 1.23 µM)
Haemophilus influenzae [12]
  MBC: 4 µg/mL (≈ 4.93 µM)
Staphylococcus aureus [13]
  MBC: > 1 µg/mL
Moraxella catarrhalis [14]
  MBC: 0.25 µg/mL (≈ 0.308 µM)
Streptococcus pyogenes [16]
  Ratio: 2
Haemophilus influenzae [17]
  Ratio: 4
Staphylococcus aureus [18]
  Ratio: >8
Moraxella catarrhalis [19]
  Ratio: 1

## CC[C@H]1OC(=O)[C@H](C)[C@@H](OC(=O)Cc2ccccn2)[C@H](C)[C@@H](O[C@@H]2O[C@H](C)C[C@H](N(C)C)[C@H]2O)[C@](C)(OC)C[C@@H](C)/C(=N\OC/C=C/c2ccc(N)nc2)[C@H](C)[C@H]2OC(=O)O[C@@]21C
Streptococcus pneumoniae [1]
  MIC: 0.031 µg/mL (≈ 0.0351 µM)
Streptococcus pneumoniae [2]
  MIC: 1 µg/mL (≈ 1.13 µM)
Streptococcus pneumoniae [3]
  MIC: 1 µg/mL (≈ 1.13 µM)
Streptococcus pyogenes [4]
  MIC: 4 µg/mL (≈ 4.53 µM)
Staphylococcus aureus [5]
  MIC: 0.5 µg/mL (≈ 0.567 µM)
Staphylococcus aureus [6]
  MIC: > 64 µg/mL
Haemophilus influenzae [7]
  MIC: 32 µg/mL (≈ 36.3 µM)
